The source of these data is ChEMBL document CHEMBL1126898 (J Med Chem, 1993).

pIC50: −log10 of the molar value.

The target of the assay is Sodium-dependent dopamine transporter (Rattus norvegicus, UniProt P23977). The experiment in a line: Inhibition of [3H]WIN-35428 binding to dopamine transporter in rat striatal membranes. The class given is cell membranes, Membrane.
Chain of Sodium-dependent dopamine transporter (P23977 whole entry): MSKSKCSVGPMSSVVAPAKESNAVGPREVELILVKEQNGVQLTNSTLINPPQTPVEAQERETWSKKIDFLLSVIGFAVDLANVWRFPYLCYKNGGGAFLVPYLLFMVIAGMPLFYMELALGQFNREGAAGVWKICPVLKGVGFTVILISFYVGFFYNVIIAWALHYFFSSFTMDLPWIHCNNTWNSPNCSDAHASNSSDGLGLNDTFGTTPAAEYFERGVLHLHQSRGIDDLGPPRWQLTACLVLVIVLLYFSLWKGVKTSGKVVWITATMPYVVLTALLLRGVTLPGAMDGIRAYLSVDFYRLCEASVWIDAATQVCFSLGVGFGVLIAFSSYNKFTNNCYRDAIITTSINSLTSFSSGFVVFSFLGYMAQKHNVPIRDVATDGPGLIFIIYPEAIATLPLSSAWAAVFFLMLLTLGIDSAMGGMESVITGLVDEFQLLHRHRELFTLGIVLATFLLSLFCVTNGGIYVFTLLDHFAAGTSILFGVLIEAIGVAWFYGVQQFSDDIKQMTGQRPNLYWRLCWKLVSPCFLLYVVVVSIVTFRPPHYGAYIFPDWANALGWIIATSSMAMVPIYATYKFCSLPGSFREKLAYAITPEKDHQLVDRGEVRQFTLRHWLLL

As a reminder, the pIC50 is the IC50 on a negative log10 scale, so that one unit is a factor of ten. `CN1C2CCC1C(C(=O)OCCc1ccccc1)[C@H](OC(=O)c1ccccc1)C2` (stereo not given in full): the negative logarithm of the IC50 (pIC50) is 6.61.
To `COC(=O)C1C2CCC(C[C@H]1c1ccccc1)N2C` (stereo not given in full) belongs 7.64.
`COC(=O)C1C2CCC(C[C@H]1OC(=O)c1ccccc1)N2Cc1ccccc1` (stereo not given in full): the pIC50 is 6.18.
For the molecule `COC(=O)C1C2CCC(C[C@H]1c1ccc(N)cc1)N2C` (stereo not given in full), the pIC50 is 7.60.
As to `CN1C2CCC1C(C(=O)Oc1ccccc1)[C@H](OC(=O)c1ccccc1)C2` (stereo not given in full), the pIC50 was 6.95.
Molecule `COC(=O)C1C2CCC(C[C@H]1OC(=O)c1ccccc1)N2` (stereo not given in full) had a pIC50 of 6.52. Compared with the last molecule, the pIC50 is 0.43 log units lower.
Under `CN1C2CCC1C(C(=O)OCCc1ccc(N)cc1)[C@H](OC(=O)c1ccccc1)C2` (stereo not given in full) stands 7.14; under `CN1C2CCC1C(CO)[C@H](OC(=O)c1ccccc1)C2` (stereo not given in full), 6.25; under `COC(=O)[C@H]1C2CCC(C[C@@H]1OC(=O)c1ccccc1)N2` (stereo in doubt; form 1) [PSEUDOCOCAINE], 4.65.
In turn, `COC(=O)[C@H]1C2CCC(C[C@@H]1OC(=O)c1ccccc1)N2` (stereo in doubt; form 2) [PSEUDOCOCAINE] showed a pIC50 of 4.80.
